Measured values as given in patent US20250186418A1, “COMPOSITIONS CONTAINING NICOTINAMIDE AND VITAMIN B6 AND METHODS OF USING SUCH COMPOSITIONS FOR REHABILITATION” (SOCIETE DES PRODUITS NESTLE S.A., priority 2020, published 2025).

System: Human primary myoblasts
Test: Myogenic amplification and commitment of muscle stem cells (Pax7/MyoD staining of human primary myoblasts)
Type: cell-based
Details: donors 1 and 2 pooled, normalized to total cell number, control DMSO 1%, 96 hours; for proportion of MyoD+ cells, fold change compared to the control condition: FIG. 1B/2B
Description: Human Skeletal Muscle Myoblasts were purchased from Lonza (https://bioscience.lonza.com). These cells were isolated from the upper arm or leg muscle tissue of normal donors and used after the second passage. Several donors were tested to ensure cell viability and purity before selecting the final donors, which are a person (refer thereafter as Donor 1), a person (refer thereafter as Donor 2) and a person (refer thereafter as Donor 3). Human primary myoblasts were seeded in 384 well plates at a density of 1'000 cells per well in skeletal muscle growth medium (SKM-M, AMSbio). For treatment, compounds were directly added to the myoblast cultures 16 hours after initial plating. All cultures were then grown for 96 hours. Cells were stained for Pax7 and MyoD expression using antibodies directed against Pax7 and MyoD and counterstained with Hoechst 33342 to visualize cell nuclei. Pax7+ cells are defined as cells that express Pax7 regardless of MyoD expression. […] Image acquisition was performed using the ImageXpress (Molecular Devices) platform. Custom module analysis based on Multi-Wavelength Cell Scoring of the MetaXpress software was used for quantification. *, **, ***, **** indicates difference from the control, One-way ANOVA, with p<0.05, p<0.01, p<0.001, p<0.0001, respectively. Data are presented as Mean+/−SEM Human primary myoblasts from different donors (donor 1, donor 2 or donor 3) were seeded in 384 well plates at a density of 1′000 cells per well in skeletal muscle growth medium (SKM-M, AMSbio). For treatment, compounds were directly added to the myoblast cultures 16 hours after initial plating. All cultures were then grown for 96 hours. Cells were stained for Pax7 and MyoD expression using antibodies directed against Pax7 and MyoD and counterstained with Hoechst 33342 to visualize cell nuclei. Pax7+ cells are defined as cells that express Pax7 regardless of MyoD expression. […] Image acquisition was performed using the ImageXpress (Molecular Devices) platform. Custom module analysis based on Multi-Wavelength Cell Scoring of the MetaXpress software was used for quantification. […]

SMILES	proportion of Pax7+ cells, fold change compared to the control condition (FIG. 1A/2A)	proportion of MyoD+ cells, fold change compared to the control condition
NC(=O)c1cccnc1 [Nicotinamide]	increasing the proportion of both amplifying (Pax7+) and differentiating (MyoD+) cells in a dose dependent manner	increasing the proportion of both amplifying (Pax7+) and differentiating (MyoD+) cells in a dose dependent manner
Cc1ncc(CO)c(CO)c1O [Pyridoxine]	–	increasing the proportion of differentiating (MyoD+) cells in a dose dependent manner
